The values that follow come from US10653364B2, “Method for the continuous evaluation of the ventriculo-aortic coupling of at-risk patients by analysis of pressure-flow loops” (Assistance Publique—Hopitaux de Paris, priority 2014, dated 2020).

The data set relates to major neurosurgery patients. Kind of data set: Aortic Pressure/Flow loop parameters before (T0) and at peak effect (T1) of a vasoconstrictor bolus in anesthetized patients. Type of data set: in vivo, human. Further details: S1, Base / S2, Base / S3, Base / Alpha, Base / Beta, Base / Gamma, Base / Alpha, Variations (Diff) / Beta, Variations (Diff) / Gamma, Variations (Diff) / S1, Variations (Diff) / S2, Variations (Diff) / S3, Variations (Diff): unit not given here. Conditions: for S2/Stot, Base / Alpha, Base / Beta, Base / Gamma, Base / S1, Base / S2, Base / S3, Base / S tot, Base: Base (T0, before injection); for Alpha, Base / Beta, Base / Gamma, Base: P/F loop angle; for S1, Base: P/F loop surface area S1; for S2, Base: P/F loop surface area S2; for S3, Base: P/F loop surface area S3; for Alpha, Peak / Beta, Peak / Gamma, Peak / S1, Peak / S2, Peak / S2/Stot, Peak / S3, Peak: Peak effect (T1) after peripheral venous bolus; for change in surface areas (Stot, S1, S2, S3) and angles (alpha, beta and gamma): before and after vasoconstriction, predominantly; for S tot, Base / S tot, Peak: total surface area of P/F loop; for S tot, Peak: Peak effect (T1) after peripheral venous bolus (9 mg Ephedrine, 50 μg Neophenylephrine or 5 μg Noradrenaline). An excerpt: 1.1 Parameters Measured • The Pressure signal is collected in mmHg (FIG. 2), by means of a radial or femoral arterial catheter. • The esophageal Doppler signal giving the aortic flow in ml/s (FIG. 2) is collected via the Deltex® combi Q monitor. • The Pressure/Flow loop is constructed heart beat by heart beat with the simultaneous values of aortic flow on the x-axis and of pressure on the y-axis.
1.2 Description of the Various Parameters Resulting from the Aortic Pressure/Flow Loop: • the various specific points of the loop (FIG. 3-4): • A: diastolic pressure: the flow is zero before the beginning of systole. • B: maximum flow. • C: maximum pressure (systolic pressure). • D: dicrotic pressure: pressure at closing of the aortic valves: flow at 0, beginning of diastole. • The various specific straight lines of the loop: • straight line passing through points A and B: straight line between the beginning of the cycle and the point where the flow rate is at the maximum. • straight line passing through points A and C: straight line between the beginning of the cycle and the point where the pressure is at the maximum. • The various specific surface areas of the loop (FIG. 5): • Stot: total surface area of the Pressure/Flow loop. • S1: surface area between the lower part of the curve and the straight line (AB). • S2: surface area of the loop included between the two straight lines (AB) and (AC). • S3: surface area of the loop included between the straight line (AC) and the upper edge of the loop. • The various angles of the loop (FIG. 6): • Alpha: angle between the horizontal passing through point A and the straight line (AB). • Beta: angle between the horizontal passing through point A and the straight line (AC). • Gamma: angle between the two straight lines (AB) and (AC).
The study was carried out in the operating theatre on major neurosurgery patients, after agreement from the Ethics Committee (CE SRLF 11-356) and obtaining of informed consent. In addition to the standard monitoring, a device for simultaneous invasive measurement of arterial pressure and measurement of cardiac output by trans-esophageal Doppler (CombiQ®, Deltex Medical) was set out after induction of general anesthesia. Moreover, in order to have a reflection of arterial elastance and of arterial stiffness, an arterial tonometer (SphygmoCor®, AtCor Medical) was used to obtain the curve of central arterial pressure and the arterial stiffness indices. This device is currently the reference for quantifying arterial stiffness (represented by the augmentation index: Aix, FIG. 11) and monitors its evolution as a function of vasoactive therapies.
Patients having episodes of decrease in arterial pressure (decrease of 20% compared with the target pressure) and requiring the administration of a vasoconstrictor were included. Before each injection of […] (T0) and then at the time of the peak effect of the vasopressin (T1) the Pressure/Flow loops were plotted and the parameters derived from the loop were calculated. At the same time, using the SphygmoCor®, the augmentation index (Aix) and the arterial elastance (Ea) were recorded.
Depending on the anesthetists' choice, the patients received either 9 mg of Ephedrine, or 50 μg of Neophenylephrine, or 5 μg of Noradrenaline administered via a peripheral venous route.
Statistical Analysis: • search for the correlation between the Aix measured by SphygmoCor®, with the parameters of the P/F loop at T0 and at T1. • comparison of the evolution of the parameters of the P/F loop as a function of the use of Ephedrine, of Neosynephrine or of Noradrenaline. • comparison of the parameters of the P/F loop at T0 between the patients having cardiovascular risk factors and the patients not having risk factors. • study of the variations of the parameters of the P/F loop before and after vasoconstriction as a function of the patient's susceptibility to illness and of the type of vasoconstrictor used.

In the case of `NC[C@H](O)c1ccc(O)c(O)c1` [Noradrenaline], the “S2/Stot, Base” value amounted to 26.4; the “Alpha, Base” value amounted to 8.5; the “Beta, Base” value is on record as 11.5; the “Gamma, Base” value stood at 2.2. Further, the “S1, Base” value is given as 1775; the “S2, Base” value came to 1215.9; the “S3, Base” value is reported as 1860.8; the “Alpha, Peak” value is reported as 10.6. Further, the “Beta, Peak” value is recorded as 14.2; the “Gamma, Peak” value was 3.2; the “S1, Peak” value turned out to be 1963.2; the “S2, Peak” value was 1957.4. Moreover, the “S2/Stot, Peak” value was 27.9; the “S3, Peak” value stood at 2311.5; the “change in surface areas (Stot, S1, S2, S3) and angles (alpha, beta and gamma)” value (shortened to “change in surface areas”) is given as “significant increase”; the “S tot, Base” value is recorded as 5291. In addition, the “S tot, Peak” value was 6582.
As for `CNC[C@H](O)c1cccc(O)c1` [Neosynephrine], the “S2/Stot, Base” value is 26.9; the “Alpha, Base” value worked out at 8.5; the “Beta, Base” value came out at 11.2; the “Gamma, Base” value is 2.1. Moreover, the “S1, Base” value is 2028; the “S2, Base” value came out at 1255.2; the “S3, Base” value is recorded as 1851.1; the “Alpha, Peak” value is recorded as 10.6. The “Beta, Peak” value stood at 16.2; the “Gamma, Peak” value amounted to 5.4; the “S1, Peak” value is 2516; the “S2, Peak” value is reported as 2624.7. The “S2/Stot, Peak” value was 31.2; the “S3, Peak” value came out at 2452.2; the “change in surface areas” value is “significant increase”; the “S tot, Base” value amounted to 5344. The “S tot, Peak” value worked out at 7412. The “increase of the beta and gamma angles” value (FIG. 13, for similar pressure increases induced by the vasoconstrictors) is “significantly more than Noradrenaline and Ephedrine”. Where the note is “NEOSYNEPHRINE vs NORADRENALINE”, the “Alpha, Variations (Diff)” value is on record as −0.02; the “Beta, Variations (Diff)” value was 2.55; the “Gamma, Variations (Diff)” value is listed as 2.59; the “S1, Variations (Diff)” value is listed as 266.01. Besides, where the note is “NEOSYNEPHRINE vs NORADRENALINE”, the “S1/Stot %, Variations (Diff)” value is recorded as −4.61%; the “S2, Variations (Diff)” value came to 615.97; the “S2/Stot %, Variations (Diff)” value is 6.6%; the “S3, Variations (Diff)” value is reported as 221.27. In addition, where the note is “NEOSYNEPHRINE vs NORADRENALINE”, the “S3/Stot %, Variations (Diff)” value is given as −2.13% and the “S tot, Variations (Diff)” value was 1072.27. In addition, the “increase with respect to Stot, beta, gamma and S2 (absolute and S2/Stot)” value (compared with the other two vasoconstrictors) is “greater increase than the other two vasoconstrictors”. Further, the “effect on ventricular-aortic coupling” value (reflected by greater increase in S2 and in beta and gamma angles) is listed as “detrimental effect”.
On to `CN[C@@H](C)[C@H](O)c1ccccc1` [Ephedrine], for which the “S2/Stot, Base” value was 34.2; the “Alpha, Base” value was found to be 7.4; the “Beta, Base” value is 10.9; the “Gamma, Base” value turned out to be 1.8. Moreover, the “S1, Base” value is recorded as 1997; the “S2, Base” value was 1709; the “S3, Base” value is 1658.8; the “Alpha, Peak” value turned out to be 9.5. Moreover, the “Beta, Peak” value worked out at 13.3; the “Gamma, Peak” value is on record as 2.4; the “S1, Peak” value came out at 2722; the “S2, Peak” value was found to be 2694.4. Moreover, the “S2/Stot, Peak” value came out at 32.6; the “S3, Peak” value is 2242.5; the “change in surface areas” value is given as “significant increase”; the “S tot, Base” value worked out at 4889. Besides, the “S tot, Peak” value was 6974.
